How the values were obtained:
[1] = tested on: UCP1 mRNA expression in fetal muscle CD34+ cells; test: UCP1 mRNA expression in cultured fetal muscle CD34+ cells, quantitative RT-PCR normalized to cyclophilin A; assay type: cell-based, human; conditions: rosiglitazone 1 μM
Procedure: UCP1 mRNA expression in fetal muscle CD34+ cells could be modulated by drug treatment. Cell-permeating cAMP derivatives strongly stimulated (7 to 8-fold) UCP1 mRNA expression in both primary cultured and expanded cells. The effects of cAMP derivatives, 8-bromo-cAMP, 0.25 mM or (4-chlorophenylthio)-cAMP, 0.25 mM (cAMP) on UCP1 mRNA expression in CD34+ cells in primary culture (PC) or expanded up to passage 3 (P3) are shown in FIG. 3B. All the cells were grown for 4-6 days in EGM2 medium and then placed for 8-12 days in the adipogenic medium described under Materials and Methods. The results are means±s.e.m. of arbitrary values normalized using the corresponding cyclophilin A values. They are expressed in % of their respective untreated (control) values considered as 100% (*p<0.05, n=3-6).
Rosiglitazone, a PPARγ agonist, had no effect in primary culture cells but strongly stimulated (8-fold) UCP1 mRNA expression in expanded cells. The results are expressed as in FIG. 3B (**p<0.01, n=4-7). […]
Total cell RNA was prepared using the kit NucleoSpin® RNAII (Clontech, Palo Alto, Calif.) or Extract-all solution (Eurobio, Courtaboeuf, France) and quantified by Biophotometry (Biophotometer, Eppendor). […] Quantitative real-time PCR was performed using ABI rapid thermal cycler system, and a SYBR Green PCR master mix (Applied Biosystems, Foster City, Calif.). […]

[2] = tested on: UCP1 mRNA expression in human skeletal muscle; test: UCP1 mRNA expression in vastus lateralis muscle biopsies of obese type 2 diabetic patients before and after rosiglitazone, quantitative RT-PCR; assay type: in vivo; conditions: for UCP1 mRNA level after treatment (Rosi), normalized to cyclophilin A: after 8 weeks
Procedure: Since the PPARγ agonist rosiglitazone was a strong inducer of UCP1 mRNA expression in muscle CD34+ cells in culture, the effect of this compound in vivo in humans was investigated. Vastus lateralis muscle biopsies from 7 obese patients with type 2 diabetes mellitus treated for the management of their metabolic syndrome with rosiglitazone were used. The biopsies were obtained before and after 8 weeks of treatment with rosiglitazone (2×4 mg per day). […] In that study rosiglitazone, concomitantly with the improvement in insulin sensitivity, increased the level of expression of UCP1 in muscle by about 1.6-fold. […] The results are the means±s.e.m. of arbitrary values normalized using the corresponding cyclophilin A values (n=7, *p<0.05 vs. control).
In FIG. 5, showing UCP1 mRNA levels in skeletal muscle biopsies from a patient group (n=7), “control” corresponds to levels before treatment, and “Rosi” corresponds to levels after treatment (8 weeks) with rosiglitazone. Being a longitudinal study the effect of rosiglitazone on UCP1 levels in each individual (comparison of individual values for the “control”-before and “Rosi”-after conditions) were determined. Starting with 25 ng cDNA (produced by reverse transcription of RNA) the threshold of detection (Ct) during real-time PCR was about 22 for UCP1 and about 18 for cyclophilin.
Human fetal tissues were obtained anonymously, following spontaneous, voluntary or therapeutic terminations of pregnancy, from Magee Women Hospital, University of Pittsburgh, in compliance with the Institutional Review Board protocol. Developmental age (16 to 24 weeks of gestation) was estimated by measuring foot length. Informed consent to the use of fetal tissues was obtained from the patients in all instances. Adult human discarded abdominal subcutaneous WAT, originating from 45-55 year old patients undergoing plastic surgery performed one year after gastric bypass, was kindly provided by Dr Peter Rubin (Division of Plastic Surgery, University of Pittsburgh). The adult skeletal muscle tissue used for cell sorting was obtained post mortem from 50-78 year-old donors. The adult skeletal muscle used for the first group of RT-PCR studies was obtained from the rectus abdominus during surgery for either lap banding, inguinal hernia or hysterectomy of 10 lean male and female subjects. All subjects agreed to donate muscle samples during their operations and the protocol was approved by the Medical Ethical Review Committee of Deakin University. The average ages were 45±3 years and the average body mass index was 22.2±0.8. The adult skeletal muscle used for the second group of RT-PCR studies was obtained from the vastus lateralis of 7 obese type 2 diabetic male and female patients before and after 8 weeks of treatment with rosiglitazone (2×4 mg per day). The average age was 63±4 years and the average body mass index was […]. The complete clinical profile of the patients has been described in a previous publication. All subjects agreed to donate muscle samples, and the protocol was approved by the Medical Ethical Review Committee of Maastricht University.
Total cell RNA was prepared using the kit NucleoSpin® RNAII (Clontech, Palo Alto, Calif.) or Extract-all solution (Eurobio, Courtaboeuf, France) and quantified by Biophotometry (Biophotometer, Eppendor). Oligo-dT primed First strand cDNA were synthesized using the Superscript™ II RNase H Reverse Transcription kit (Invitrogen, Carlsbad, Calif.) and oligo-dT primers or the High Capacity cDNA Reverse Transcription kit (Applied Biosystems, Foster City, Calif.) and random primers. Quantitative real-time PCR was performed using ABI rapid thermal cycler system, and a SYBR Green PCR master mix (Applied Biosystems, Foster City, Calif.). Cyclophilin A was used as a control to account for any variations due to the efficiency of the reverse transcription. […]

Q: For `CN(CCOc1ccc(CC2SC(=O)NC2=O)cc1)c1ccccn1` (centres unmarked) [rosiglitazone], which “stimulation of UCP1 mRNA expression” value ([1]; CD34+ cells expanded up to passage 3 (P3)) is on record?
A: The value was 8 fold.

Q: What about the “effect on UCP1 mRNA expression” value ([1]; CD34+ cells in primary culture (PC)) of the same molecule?
A: The value was “no effect”.

Q: And the “increase of the level of expression of UCP1 in muscle” value ([2]; 7 obese type 2 diabetic patients, 8 weeks, 2×4 mg per day, after vs before treatment, mean)?
A: Its value is “about 1.6 fold”.

Q: And the “UCP1 level at end of treatment in % of before treatment” value (“UCP1 level … in % of before treatment” for short) ([2]; Patient 1, 8 weeks)?
A: Its value is 150%.

Q: What about the “UCP1 level increase, end of treatment vs. before” value (from here on “UCP1 level increase, end”) ([2]; Patient 1, 8 weeks) of the same molecule?
A: The value was 50%.

Q: And the “UCP1 mRNA level after treatment (Rosi), normalized to cyclophilin A” value (from here on “UCP1 mRNA level … normalized to cyclophilin A”) ([2]; Patient 1)?
A: Its value is 652 arbitrary units.

Q: And the “UCP1 level … in % of before treatment” value ([2]; Patient 2, 8 weeks)?
A: Its value is 100%.

Q: And the “UCP1 mRNA level … normalized to cyclophilin A” value ([2]; Patient 2)?
A: The value was 453 arbitrary units.

Q: What about the “UCP1 level … in % of before treatment” value ([2]; Patient 3, 8 weeks) of the same molecule?
A: The value was 180%.

Q: What about the “UCP1 level increase, end” value ([2]; Patient 3, 8 weeks) of the same molecule?
A: Its value is 80%.

Q: And the “UCP1 mRNA level … normalized to cyclophilin A” value ([2]; Patient 3)?
A: The value was 677 arbitrary units.

Q: And the “UCP1 level … in % of before treatment” value ([2]; Patient 4, 8 weeks)?
A: The value was 280%.

Q: And the “UCP1 level increase, end” value ([2]; Patient 4, 8 weeks)?
A: The value was 180%.

Q: What about the “UCP1 mRNA level … normalized to cyclophilin A” value ([2]; Patient 4) of the same molecule?
A: The value was 730 arbitrary units.

Q: What about the “UCP1 level … in % of before treatment” value ([2]; Patient 5, 8 weeks) of the same molecule?
A: Its value is 108%.

Q: What about the “UCP1 level increase, end” value ([2]; Patient 5, 8 weeks) of the same molecule?
A: The value was 8%.

Q: And the “UCP1 mRNA level … normalized to cyclophilin A” value ([2]; Patient 5)?
A: Its value is 600 arbitrary units.

Q: And the “UCP1 level … in % of before treatment” value ([2]; Patient 6, 8 weeks)?
A: Its value is 410%.

Q: What about the “UCP1 level increase, end” value ([2]; Patient 6, 8 weeks) of the same molecule?
A: The value was 310%.

Q: And the “UCP1 mRNA level … normalized to cyclophilin A” value ([2]; Patient 6)?
A: Its value is 556 arbitrary units.

Q: And the “UCP1 level … in % of before treatment” value ([2]; Patient 7, 8 weeks)?
A: The value was 110%.

Q: What about the “UCP1 level increase, end” value ([2]; Patient 7, 8 weeks) of the same molecule?
A: The value was 10%.

Q: What about the “UCP1 mRNA level … normalized to cyclophilin A” value ([2]; Patient 7) of the same molecule?
A: The value was 142 arbitrary units.

Reference: US12025612B2, “Brown adipocyte progenitors in human skeletal muscle” (Energesis Pharmaceuticals, Inc., priority 2008, dated 2024)
